Reference: ChEMBL document CHEMBL6153084, “The development of α, β-unsaturated lactam-based andrographolide derivatives as anti-gastric cancer agents with the ability of inhibiting the ERK/c-Fos/Jun pathway” (Eur J Med Chem, 2025)

tested on: MGC-803; assay: Antiproliferative activity against human MGC-803 cells assessed as inhibition of cell growth incubated for 24 to 72 hrs by MTT assay; type: functional, cell-based

Row | Structure (SMILES) | IC50
1 | C=C1CC[C@@H]2[C@](C)(CO)[C@H](O)CC[C@@]2(C)[C@@H]1/C=C/C(=C/C(=O)Cc1ccc(Cl)cc1)C(=O)N(C)C | > 50 µM
2 | C=C1CC[C@@H]2[C@](C)(CO)[C@H](O)CC[C@@]2(C)[C@@H]1/C=C/C1=CC(=C/c2cccc(Cl)c2)/NC1=O | > 50 µM
3 | C=C1CC[C@@H]2[C@](C)(CO)[C@H](O)CC[C@@]2(C)[C@@H]1/C=C/C(=C/C(=O)Cc1ccc(Cl)cc1)C(=O)N1CCOCC1 | > 50 µM
4 | C=C1CC[C@@H]2[C@](C)(CO)[C@H](O)CC[C@@]2(C)[C@@H]1/C=C/C(=C/C(=O)Cc1ccc(Cl)cc1)C(=O)N1CCN(C(=O)OC(C)(C)C)CC1 | 15.8 µM
5 | C=C1CC[C@@H]2[C@](C)(CO)[C@H](O)CC[C@@]2(C)[C@@H]1/C=C/C1=CC(=C/c2cccc(C)c2C)/NC1=O | 14.1 µM
6 | C=C1CC[C@@H]2[C@](C)(CO)[C@H](O)CC[C@@]2(C)[C@@H]1/C=C/C(=C/C(=O)Cc1ccc(Cl)cc1)C(=O)N1CCN(CC)CC1 | > 50 µM
7 | C=C1CC[C@@H]2[C@](C)(CO)[C@H](O)CC[C@@]2(C)[C@@H]1/C=C/C1=CC(=C/c2ccc(Cl)cc2Cl)/NC1=O | 8.52 µM
8 | C=C1CC[C@@H]2[C@](C)(CO)[C@H](O)CC[C@@]2(C)[C@@H]1/C=C/C1=CC(=C/c2ccc(F)c(F)c2)/NC1=O | > 50 µM
9 | C=C1CC[C@@H]2[C@](C)(CO)[C@H](O)CC[C@@]2(C)[C@@H]1/C=C/C1=CC(=C/c2ccccc2C)/NC1=O | 1.76 µM
10 | C=C1CC[C@@H]2[C@](C)(CO)[C@H](O)CC[C@@]2(C)[C@@H]1/C=C/C(=C/C(=O)Cc1ccc(Cl)cc1)C(=O)N1CCN(C)CC1 | > 50 µM
11 | C=C1CC[C@@H]2[C@](C)(CO)[C@H](O)CC[C@@]2(C)[C@@H]1/C=C/C(=C/C(=O)Cc1ccc(Cl)cc1)C(=O)N1CCCCC1 | > 50 µM
12 | C=C1CC[C@@H]2[C@](C)(CO)[C@H](O)CC[C@@]2(C)[C@@H]1/C=C/C1=CC(=C/c2cccc3ccccc23)/NC1=O | 1.34 µM
13 | C=C1CC[C@@H]2[C@](C)(CO)[C@H](O)CC[C@@]2(C)[C@@H]1/C=C/C1=CC(=C2CCCCC2)NC1=O | > 50 µM
14 | C=C1CC[C@@H]2[C@](C)(CO)[C@H](O)CC[C@@]2(C)[C@@H]1/C=C/C(=C/C(=O)Cc1ccc(Cl)cc1)C(=O)N1CCNCC1 | 37.8 µM
15 | C=C1CC[C@@H]2[C@](C)(CO)[C@H](O)CC[C@@]2(C)[C@@H]1/C=C/C1=CC(=C/c2ccc3ccccc3c2)/NC1=O | 2.43 µM
16 | C=C1CC[C@@H]2[C@](C)(CO)[C@H](O)CC[C@@]2(C)[C@@H]1/C=C/C(=C/C(=O)Cc1ccc(Cl)cc1)C(=O)N1CCCC1 | > 50 µM
17 | C=C1CC[C@@H]2[C@](C)(CO)[C@H](O)CC[C@@]2(C)[C@@H]1/C=C/C1=CC(=C/C2CCCCC2)/NC1=O | 15.7 µM
18 | C=C1CC[C@@H]2[C@](C)(CO)[C@H](O)CC[C@@]2(C)[C@@H]1/C=C/C1=CC(=C/c2ccc([N+](=O)[O-])c(Cl)c2)/NC1=O | > 50 µM
19 | C=C1CC[C@@H]2[C@](C)(CO)[C@H](O)CC[C@@]2(C)[C@@H]1/C=C/C1=CC(=C/c2ccccc2Cl)/NC1=O | 1.6 µM
20 | C=C1CC[C@@H]2[C@](C)(CO)[C@H](O)CC[C@@]2(C)[C@@H]1/C=C/C1=CC(=C(C)C)NC1=O | > 50 µM
21 | C=C1CC[C@@H]2[C@](C)(CO)[C@H](O)CC[C@@]2(C)[C@@H]1C/C=C1/C(=O)OC[C@H]1O [ANDROGRAPHOLIDE] | 31.8 µM
22 | C=C1CC[C@@H]2[C@](C)(CO)[C@H](O)CC[C@@]2(C)[C@@H]1/C=C/C1=CC(=C/c2cc(OC)c(OC)c(OC)c2)/NC1=O | 7.27 µM
23 | C=C1CC[C@@H]2[C@](C)(CO)[C@H](O)CC[C@@]2(C)[C@@H]1/C=C/C(=C/C(=O)Cc1ccc(Cl)cc1)C(=O)N1CCN(CCO)CC1 | > 50 µM
24 | C=C1CC[C@@H]2[C@](C)(CO)[C@H](O)CC[C@@]2(C)[C@@H]1/C=C/C1=CC(=C/c2cccnc2)/NC1=O | 12.3 µM

Now from value to compound:

Row | IC50 | Structure (SMILES)
25 | 9.56 µM | C=C1CC[C@@H]2[C@](C)(CO)[C@H](O)CC[C@@]2(C)[C@@H]1/C=C/C1=CC(=C/c2ccccc2)/NC1=O
26 | 19.2 µM | C=C1CC[C@@H]2[C@](C)(CO)[C@H](O)CC[C@@]2(C)[C@@H]1/C=C/C1=CC(=C\c2ccc(Cl)cc2)/NC1=O
27 | 4.56 µM | C=C1CC[C@@H]2[C@](C)(CO)[C@H](O)CC[C@@]2(C)[C@@H]1/C=C/C1=CC(=C/c2cccc(C)c2)/NC1=O
28 | 17.6 µM | C=C1CC[C@@H]2[C@](C)(CO)[C@H](O)CC[C@@]2(C)[C@@H]1/C=C/C1=CC(=C\c2ccccc2)/NC1=O
29 | 14.7 µM | C=C1CC[C@@H]2[C@](C)(CO)[C@H](O)CC[C@@]2(C)[C@@H]1/C=C/C1=CC(=C\c2ccc(C)cc2)/NC1=O
30 | 6.05 µM | C=C1CC[C@@H]2[C@](C)(CO)[C@H](O)CC[C@@]2(C)[C@@H]1/C=C/C1=CC(=C/c2ccc(Cl)cc2)/NC1=O
31 | 18.1 µM | C=C1CC[C@@H]2[C@](C)(CO)[C@H](O)CC[C@@]2(C)[C@@H]1/C=C/C1=CC(=C/c2ccc(N(C)C)cc2)/NC1=O
32 | 19.5 µM | C=C1CC[C@@H]2[C@](C)(CO)[C@H](O)CC[C@@]2(C)[C@@H]1/C=C/C1=CC(=C/c2ccc(C(C)(C)C)cc2)/NC1=O
33 | 5.3 µM | C=C1CC[C@@H]2[C@](C)(CO)[C@H](O)CC[C@@]2(C)[C@@H]1/C=C/C1=CC(=C/c2ccc(Br)cc2)/NC1=O
34 | > 50 µM | C=C1CC[C@@H]2[C@](C)(CO)[C@H](O)CC[C@@]2(C)[C@@H]1/C=C/C1=CC(=C/c2ccc(F)cc2)/NC1=O
